What was measured:
[1] = tested on: Tobacco Budworm (Heliothis virescens); test: Insecticidal test for tobacco budworm, treated cotton cotyledon leaf disc; assay type: in vivo; parameters: key: A: 90–100; B: 80–89; C: 70–79; D: 60–69; E: 50–59; F: less than 50; G: Inactive; details: cotton cotyledon leaf-dip, 2nd instar larvae, 5 days
[2] = tested on: Cabbage Looper (Trichoplusia ni); test: Insecticidal test for cabbage looper, treated cabbage leaf disc; assay type: in vivo; parameters: key: A: 90–100; B: 80–89; C: 70–79; D: 60–69; E: 50–59; F: less than 50; G: Inactive; details: cabbage leaf-dip, 2nd instar larvae, 5 days
[3] = tested on: Two-spotted Spider Mite (Tetranychus urticae); test: Insecticidal test for two-spotted spider mite, ovicide method; assay type: in vivo; parameters: key: A: 90–100; B: 80–89; C: 70–79; D: 60–69; E: 50–59; F: less than 50; G: Inactive; details: cotton leaf discs, 6 days
Outline: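 Cotton leaf discs (eight, 2.2 cm each) received ten adult female two-spotted spider mites, which laid eggs for 24 hours before being taken off. The discs were then set on an agar substrate and kept at 24° C. and 90% RH for 6 days to assess ovicidal control.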

[4] = tested on: Sweetpotato Whitefly (Bemisia tabacia); test: Insecticidal test for sweetpotato whitefly, spray on cotton plants; assay type: in vivo; parameters: key: A: 90–100; B: 80–89; C: 70–79; D: 60–69; E: 50–59; F: less than 50; G: Inactive; details: 200 ppm spray, 13 days, large nymphs
Outline: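 Five-week cotton plants trimmed to two leaves carried 2 days of whitefly oviposition, then adults were removed. Leaves were sprayed top and bottom with 200 ppm compound in water with 0.05% Tween 20 (acetone:ethanol co-solvent), four replicates. After 13 days at 28° C/60% RH, 3rd–4th instar nymphs were counted; percent control versus solvent-only sprayed plants.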

[5] = tested on: Beet Armyworm (Spodoptera exigua); test: Insecticidal test for beet armyworm, treated lepidopteran diet; assay type: in vivo; parameters: key: A: 90–100; B: 80–89; C: 70–79; D: 60–69; E: 50–59; F: less than 50; G: Inactive; details: on diet surface, second-instar larvae, 5 days
Outline: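 Test compound formulated at 400 ppm in 2:1 acetone:tap water; 250 μL applied onto surface of modified Shorey lepidopteran diet, five cups per compound (one cup = one replicate). After solvent air-dried, one second-instar larva placed on treated diet per cup.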

[6] = tested on: Cotton Aphid (Aphis gossypii); test: Insecticidal test for cotton aphid, spray on infested squash cotyledons; assay type: in vivo; details: 50 ppm spray, 3 days
Outline: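 Squash cotyledons were infested with all aphid life stages 16–20 h beforehand, then sprayed on both sides to runoff with 50 ppm compound (acetone:ethanol, 0.05% Tween 20). After 3 days at 26 °C and 40% RH, aphids were counted under a microscope, and percent control is population reduction versus untreated.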

Row | melting point | SMILES | TBW: activity at 400 ppm against tobacco budworm (% control rating) [1] | CL: activity at 400 ppm against cabbage looper (% control rating) [2] | SM: activity against two-spotted spider mite (% control rating) [3] | WF: activity at 200 ppm against whitefly (% control rating) [4] | BAW: activity at 400 ppm against beet armyworm (% control rating) [5] | CA: activity at 50 ppm against cotton aphid (% control rating) [6]
1 |  | Cc1c(-c2nc(-c3c(F)cccc3Cl)nn2C)csc1-c1ccc(OC(F)(F)C(F)Cl)cc1 (stereo not drawn) | A (90–100) | A (90–100) | A (90–100) | A (90–100) | A (90–100) | B (80–89)
2 |  | Cc1c(-c2nc(-c3c(F)cccc3Cl)nn2C)csc1-c1ccc(OC(F)(F)CF)cc1 | G | F (less than 50) | G | A (90–100) | A (90–100) | A (90–100)
3 |  | Cc1c(-c2nc(-c3c(F)cccc3Cl)nn2C)csc1-c1ccc(OC(F)(F)C(Cl)Cl)cc1 | A (90–100) | A (90–100) | A (90–100) | A (90–100) | A (90–100) | B (80–89)
4 |  | Cc1c(-c2nc(-c3c(F)cccc3Cl)nn2C)csc1-c1ccc(OC(C)C)cc1 | F (less than 50) | G | G | G | G | A (90–100)
5 |  | CC(C)=COc1ccc(-c2scc(-c3nc(-c4c(F)cccc4Cl)nn3C)c2C)cc1 | F (less than 50) | A (90–100) | A (90–100) | A (90–100) | A (90–100) | A (90–100)
6 |  | COCCOc1ccc(-c2scc(-c3nc(-c4c(F)cccc4Cl)nn3C)c2C)cc1 | G | B (80–89) | D (60–69) | F (less than 50) | B (80–89) | C (70–79)
7 |  | Cc1c(-c2nc(-c3c(F)cccc3Cl)nn2C)csc1-c1cccc(C(F)(F)F)c1F | G | A (90–100) | F (less than 50) | E (50–59) | G | A (90–100)
8 |  | Cc1c(-c2nc(-c3c(F)cccc3Cl)nn2C)csc1-c1ccc(Cl)cc1F | F (less than 50) | A (90–100) | A (90–100) | G | G | A (90–100)
9 |  | Cc1c(-c2nc(-c3c(F)cccc3Cl)nn2C)csc1-c1ccc(Cl)c(F)c1 | G | A (90–100) | A (90–100) | G | F (less than 50) | A (90–100)
10 |  | Cc1c(-c2nc(-c3c(F)cccc3Cl)nn2C)csc1-c1ccc(F)cc1 | F (less than 50) | D (60–69) | B (80–89) | F (less than 50) | G | B (80–89)
11 |  | Cn1nc(-c2c(F)cccc2Cl)nc1-c1csc(-c2ccc(C(F)(F)F)cc2F)c1 | D (60–69) | A (90–100) | C (70–79) | F (less than 50) | A (90–100) | C (70–79)
12 |  | Cc1c(-c2ccc(OC(F)(F)C(F)Br)cc2)csc1-c1nc(-c2c(F)cccc2Cl)nn1C (stereo not drawn) | B (80–89) | A (90–100) | G | A (90–100) | A (90–100) | A (90–100)
13 |  | Cc1c(-c2ccc(OC(F)(F)C(F)Cl)cc2)csc1-c1nc(-c2c(F)cccc2Cl)nn1C (stereo not drawn) | B (80–89) | A (90–100) | C (70–79) | A (90–100) | A (90–100) | B (80–89)
14 |  | Cc1c(-c2ccc(OC(F)(F)C(F)C(F)(F)F)cc2)csc1-c1nc(-c2c(F)cccc2Cl)nn1C (stereo not drawn) | A (90–100) | A (90–100) | A (90–100) | A (90–100) | A (90–100) | D (60–69)
15 |  | Cc1c(-c2nc(-c3c(F)cccc3Cl)nn2C)sc(Br)c1-c1ccc(OC(F)(F)C(F)Br)cc1 (stereo not drawn) | F (less than 50) | A (90–100) | G | F (less than 50) | A (90–100) | B (80–89)
16 | 124 to 125 °C | Cc1c(-c2nc(-c3c(F)cccc3Cl)nn2C)csc1-c1ccc(OC(F)(F)F)cc1 [Example 1, 3-(2-Chloro-6-fluorophenyl)-5-[4-methyl-5-(4-trifluoromethoxyphenyl)thien-3-yl]-1-methyl-1H-1,2,4-triazole] |  |  |  |  |  | 
17 | 53 to 54 °C | Cn1nc(-c2c(F)cccc2Cl)nc1-c1cc(-c2cccc(C(F)(F)F)c2)sc1Cl [Example 2, 3-(2-Chloro-6-fluorophenyl)-5-[2-chloro-5-(3-trifluoromethylphenyl)thien-3-yl]-1-methyl-1H-1,2,4-triazole] |  |  |  |  |  | 
18 | 135 to 136 °C | Cn1nc(-c2c(F)cccc2Cl)nc1-c1cc(-c2ccc(OC(F)(F)F)cc2)sc1Br [Example 3, 3-(2-Chloro-6-fluorophenyl)-5-[2-bromo-5-(4-trifluoromethoxyphenyl)thien-3-yl]-1-methyl-1H-1,2,4-triazole] |  |  |  |  |  | 
19 |  | Cc1c(-c2nc(-c3c(F)cccc3Cl)nn2C)csc1-c1ccc(OC(F)(F)C(F)C(F)(F)F)cc1 (stereo not drawn) [drawing 216] | A (90–100) | A (90–100) | B (80–89) | A (90–100) | A (90–100) | D (60–69)
20 |  | Cc1c(-c2nc(-c3c(F)cccc3Cl)nn2C)csc1-c1ccc(F)cc1F [drawing 224] | D (60–69) | A (90–100) | G | G | G | A (90–100)
21 |  | Cc1c(-c2nc(-c3c(F)cccc3Cl)nn2C)csc1-c1ccc(F)cc1F [drawing 233] | G | A (90–100) | B (80–89) | F (less than 50) | G | B (80–89)
